In patent US9284325B2, “Spectinamides as anti-tuberculosis agents” (UNIVERSITY OF TENNESSEE RESEARCH FOUNDATION, priority 2009, dated 2016):
In brackets after ≈: the same amount, converted by molar mass. Like-named read-outs stand apart in the source and are kept apart here.

What was measured:
[1] = Cytotoxicity, MTT cell proliferation assay; conditions: African green monkey, Vero epithelial cells (ATCC CCL-81)
[2] = test system: Vero epithelial cells; assay: Cytotoxicity, MTT cell proliferation assay; conditions: Vero IC50 / M. tuberculosis MIC
[3] = test system: E. coli K12 ΔtolC; assay: microbe, parasite or virus in culture; assay type: cell-based; conditions: Escherichia coli, read-out: MIC E. coli K12 ΔtolC
[4] = test system: B. anthracis Sterne 34F2; assay: microbe, parasite or virus in culture; assay type: cell-based, Bacillus anthracis; conditions: Bacillus anthracis, STERNE34F2, read-out: MIC B. anthracis 34F2
[5] = test system: Burkholderia cepacia ATCC 25416; assay: MIC determination by microbroth dilution; assay type: cell-based; conditions: ATCC25416, read-out: MIC B. cepcia
[6] = test system: E. coli K12; assay: MIC determination by microbroth dilution; assay type: cell-based, Escherichia coli; conditions: Escherichia coli, K12
[7] = test system: E. coli ribosomes; assay type: biochemical; conditions: E. coli S30 transcription/translation assay
[8] = test system: protein synthesis in whole cell M. bovis BCG; assay type: cell-based
[9] = test system: Vero epithelial cells; conditions: African green monkey
[10] = test system: Acinetobacter baumannii ATCC 19606; assay: MIC determination by microbroth dilution; assay type: cell-based; conditions: ATCC19606
[11] = test system: P. aeruginosa PAO1; assay: MIC determination by microbroth dilution; assay type: cell-based, Pseudomonas aeruginosa; conditions: Pseudomonas aeruginosa
[12] = test system: Proteus mirabilis ATCC 25933; assay: MIC determination by microbroth dilution; assay type: cell-based; conditions: ATCC25933
[13] = test system: S. aureus 8325 or strain ATCC 29213; assay: MIC determination by microbroth dilution; assay type: cell-based, Staphylococcus aureus; conditions: Staphylococcus aureus, ATCC29213; S. aureus 8325 or strain ATCC 29213 (for 1471-1544)
[14] = test system: Strep. pneumoniae DAW27 or strain R6; assay: MIC determination by microbroth dilution; assay type: cell-based, Streptococcus pneumoniae; conditions: Streptococcus pneumoniae; Strep. pneumoniae DAW27 or strain R6 (for 1443-1544); read-out: MIC S. pneumoniae
[15] = test system: E. faecalis ATCC 33186; assay: MIC determination by microbroth dilution; assay type: cell-based, Enterococcus faecalis; conditions: Enterococcus faecalis, ATCC33186
[16] = test system: Strenotrophomonas maltophilia ATCC 13637; assay: MIC determination by microbroth dilution; assay type: cell-based
[17] = test system: Strep. pyogenes ATCC 700294; assay: MIC determination by microbroth dilution; assay type: cell-based, Streptococcus pyogenes; conditions: Streptococcus pyogenes, ATCC700294, read-out: MIC S. pyogenes
[18] = test system: Klebsiella pneumoniae ATCC 33495; assay: MIC determination by microbroth dilution; assay type: cell-based; conditions: ATCC33495
[19] = test system: Borrelia burgdorferi; conditions: spirochete Borrelia burgdorferi, Criswell et al.; cited from earlier work
[20] = test system: M. tuberculosis H37Rv; assay: MIC determination by microbroth dilution, anti-tuberculosis activity; assay type: cell-based, Mycobacterium tuberculosis
[21] = test system: Proteus vulgaris ATCC 33420; assay: MIC determination by microbroth dilution; assay type: cell-based; conditions: ATCC33420

Compound: CC[C@@H](CO)NCCN[C@@H](CC)CO [Ethambutol]
- IC50 at 72 h [1]: 732 µg/mL (≈ 3580 µM)
- therapeutic index (IC50 divided by the MIC) [2]: 913.8

Compound: [H]/N=C(/N)N[C@H]1[C@H](O)[C@@H](O)[C@H](O[C@@H]2O[C@@H](C)[C@](O)(C=O)[C@H]2O[C@@H]2O[C@@H](CO)[C@H](O)[C@@H](O)[C@@H]2NC)[C@@H](N/C(N)=N\[H])[C@@H]1O [Streptomycin, reference compound]
- MIC [3]: 1.6 µg/mL (≈ 2.75 µM)
- MIC [4]: 0.8 µg/mL (≈ 1.38 µM)
- MIC [5]: > 200 µg/mL
- MIC [6]: 0.8 µg/mL (≈ 1.38 µM)
- IC50, 50% inhibition of luciferase biosynthesis in S30 assay [7]: 0.27 µg/mL
- inhibition of protein synthesis [8]: inhibited protein synthesis
- therapeutic index (IC50 divided by the MIC) [9]: 7680.5
- IC50 at 72 h [1]: 1540 µg/mL (≈ 2640 µM)
- MIC [10]: > 200 µg/mL
- MIC [11]: 25 µg/mL (≈ 43 µM)
- MIC [12]: 50 µg/mL (≈ 86 µM)
- MIC [13]: 0.4 µg/mL (≈ 0.688 µM)
- MIC [14]: 12.5 µg/mL (≈ 21.5 µM)
- MIC [15]: 50 µg/mL (≈ 86 µM)
- MIC [16]: 3.12 µg/mL (≈ 5.36 µM)
- MIC [17]: 25 µg/mL (≈ 43 µM)
- MIC [18]: > 200 µg/mL
- frequency at which resistance arises [19]: ≥ 10^−7
- Activity (MIC) of 1329 compared to streptomycin [20]: 0.2
- MIC [21]: 1.6 µg/mL (≈ 2.75 µM)
